According to ChEMBL document CHEMBL3885861, “Open TG-GATES”:

Species on record: Rattus norvegicus
Experiment: Open TG-GATES - Regimen: Single
Format: toxicity, organism-based, Sprague-Dawley
Set-up: regimen Single, gender Male, age 6 weeks
Settings: in vivo, po, route gavage; for APTT / Bas / Eos / Fbg / Hb / Ht / Lym / MCH / MCHC / MCV / Mono / Neu / PT / Plat / RBC / Ret / WBC: tissue Blood; for KIDNEY_L / KIDNEY_R / KIDNEY_TOTAL: tissue Kidney; for LIVER: tissue Liver; for ALP / ALT / AST / BUN / CRE / DBIL / GLC / K / Na / PL / RALB / TBIL / TC / TG / TP / gamma-GTP: tissue Plasma
[1] = 75 mg/kg, 3 h, dose level Middle
[2] = 75 mg/kg, 6 h, dose level Middle
[3] = 75 mg/kg, 9 h, dose level Middle
[4] = 75 mg/kg, 24 h, dose level Middle
[5] = 250 mg/kg, 3 h, dose level High
[6] = 250 mg/kg, 6 h, dose level High
[7] = 250 mg/kg, 9 h, dose level High
[8] = 250 mg/kg, 24 h, dose level High

## CN1C(=O)CN=C(c2ccccc2)c2cc(Cl)ccc21 [DIAZEPAM]
[1]
  TERMINAL_BW: 217.1 g
  APTT: 15.6 s
  Bas: 0%
  Eos: 1.2%
  Fbg: 212.4 mg/dL
  Hb: 13.8 g/dL
  Ht: 41.7%
  Lym: 77.2%
  MCH: 22.1 pg
  MCHC: 33.1%
  MCV: 66.8 fL
  Mono: 6.2%
  Neu: 15.6%
  PT: 12.7 s
  Plat: 103.8 x10_4/uL
  RBC: 624.4 x10_4/ul
  Ret: 8.2%
  WBC: 74.8 x10_2/uL
  KIDNEY_L: 1 g
  KIDNEY_R: 1 g
  KIDNEY_TOTAL: 2 g
  LIVER: 10.1 g
  ALP: 916 IU/L
  ALT: 31.2 IU/L
  AST: 62.6 IU/L
  BUN: 12 mg/dL
  CRE: 0.5 mg/dL
  DBIL: 0.028 mg/dL
  GLC: 187.6 mg/dL
  K: 5.1 meq/L
  Na: 139.6 meq/L
  PL: 133 mg/dL
  RALB: 3.9 g/dL
  TBIL: 0.4 mg/dL
  TC: 73 mg/dL
  TG: 46.8 mg/dL
  TP: 5.5 g/dL
  gamma-GTP: 1.6 IU/L
[2]
  TERMINAL_BW: 213.3 g
  APTT: 16.5 s
  Bas: 0%
  Eos: 0.8%
  Fbg: 222.8 mg/dL
  Hb: 13.8 g/dL
  Ht: 41.9%
  Lym: 79.2%
  MCH: 22.3 pg
  MCHC: 33.1%
  MCV: 67.3 fL
  Mono: 7.2%
  Neu: 13.2%
  PT: 12.1 s
  Plat: 105.5 x10_4/uL
  RBC: 621.2 x10_4/ul
  Ret: 8.1%
  WBC: 115.9 x10_2/uL
  KIDNEY_L: 1 g
  KIDNEY_R: 1 g
  KIDNEY_TOTAL: 2 g
  LIVER: 10.3 g
  ALP: 899 IU/L
  ALT: 30.4 IU/L
  AST: 59 IU/L
  BUN: 13 mg/dL
  CRE: 0.5 mg/dL
  DBIL: 0.02 mg/dL
  GLC: 198.2 mg/dL
  K: 5.5 meq/L
  Na: 139.6 meq/L
  PL: 147.8 mg/dL
  RALB: 3.8 g/dL
  TBIL: 0.4 mg/dL
  TC: 77.4 mg/dL
  TG: 78.2 mg/dL
  TP: 5.8 g/dL
  gamma-GTP: 1.6 IU/L
[3]
  TERMINAL_BW: 215.6 g
  APTT: 16.4 s
  Bas: 0%
  Eos: 0.8%
  Fbg: 213.8 mg/dL
  Hb: 13.9 g/dL
  Ht: 41.8%
  Lym: 80.2%
  MCH: 21.1 pg
  MCHC: 33.1%
  MCV: 63.8 fL
  Mono: 5.4%
  Neu: 13.8%
  PT: 12.4 s
  Plat: 101.8 x10_4/uL
  RBC: 655.6 x10_4/ul
  Ret: 8.2%
  WBC: 90.1 x10_2/uL
  KIDNEY_L: 1 g
  KIDNEY_R: 1 g
  KIDNEY_TOTAL: 1.9 g
  LIVER: 9.7 g
  ALP: 771 IU/L
  ALT: 33 IU/L
  AST: 62.8 IU/L
  BUN: 14.2 mg/dL
  CRE: 0.6 mg/dL
  DBIL: 0.048 mg/dL
  GLC: 208 mg/dL
  K: 4.5 meq/L
  Na: 140 meq/L
  PL: 143.8 mg/dL
  RALB: 3.8 g/dL
  TBIL: 0.4 mg/dL
  TC: 71 mg/dL
  TG: 80.6 mg/dL
  TP: 5.7 g/dL
  gamma-GTP: 1.4 IU/L
[4]
  TERMINAL_BW: 230.6 g
  APTT: 16.2 s
  Bas: 0%
  Eos: 0.8%
  Fbg: 208.2 mg/dL
  Hb: 13.6 g/dL
  Ht: 40.9%
  Lym: 79.4%
  MCH: 21.6 pg
  MCHC: 33.2%
  MCV: 65.1 fL
  Mono: 5.6%
  Neu: 14%
  PT: 12.3 s
  Plat: 103.8 x10_4/uL
  RBC: 628.4 x10_4/ul
  Ret: 8%
  WBC: 115 x10_2/uL
  KIDNEY_L: 1 g
  KIDNEY_R: 1.1 g
  KIDNEY_TOTAL: 2.1 g
  LIVER: 11.2 g
  ALP: 921 IU/L
  ALT: 37.2 IU/L
  AST: 64 IU/L
  BUN: 17.8 mg/dL
  CRE: 0.6 mg/dL
  DBIL: 0.012 mg/dL
  GLC: 199 mg/dL
  K: 5.1 meq/L
  Na: 139.4 meq/L
  PL: 141.6 mg/dL
  RALB: 4 g/dL
  TBIL: 0.4 mg/dL
  TC: 75.6 mg/dL
  TG: 97.4 mg/dL
  TP: 5.8 g/dL
  gamma-GTP: 1.2 IU/L
[5]
  TERMINAL_BW: 215.9 g
  APTT: 16.1 s
  Bas: 0%
  Eos: 1%
  Fbg: 213.4 mg/dL
  Hb: 13.6 g/dL
  Ht: 41%
  Lym: 75.8%
  MCH: 22.1 pg
  MCHC: 33.1%
  MCV: 66.7 fL
  Mono: 5.6%
  Neu: 17.6%
  PT: 12.7 s
  Plat: 109.5 x10_4/uL
  RBC: 615 x10_4/ul
  Ret: 8.8%
  WBC: 72.4 x10_2/uL
  KIDNEY_L: 1 g
  KIDNEY_R: 1 g
  KIDNEY_TOTAL: 2 g
  LIVER: 10.3 g
  ALP: 734 IU/L
  ALT: 34.2 IU/L
  AST: 67.4 IU/L
  BUN: 12.2 mg/dL
  CRE: 0.5 mg/dL
  DBIL: 0.028 mg/dL
  GLC: 196.2 mg/dL
  K: 4.7 meq/L
  Na: 140 meq/L
  PL: 144.4 mg/dL
  RALB: 3.7 g/dL
  TBIL: 0.4 mg/dL
  TC: 79.4 mg/dL
  TG: 64.2 mg/dL
  TP: 5.7 g/dL
  gamma-GTP: 1.4 IU/L
[6]
  TERMINAL_BW: 216.7 g
  APTT: 16.1 s
  Bas: 0%
  Eos: 0.8%
  Fbg: 240.4 mg/dL
  Hb: 14.3 g/dL
  Ht: 43.4%
  Lym: 77.2%
  MCH: 21.7 pg
  MCHC: 32.9%
  MCV: 65.9 fL
  Mono: 6.4%
  Neu: 16%
  PT: 12.3 s
  Plat: 120.4 x10_4/uL
  RBC: 659.8 x10_4/ul
  Ret: 8.4%
  WBC: 85.8 x10_2/uL
  KIDNEY_L: 1 g
  KIDNEY_R: 1 g
  KIDNEY_TOTAL: 2 g
  LIVER: 10.3 g
  ALP: 823.6 IU/L
  ALT: 27.8 IU/L
  AST: 68 IU/L
  BUN: 15.8 mg/dL
  CRE: 0.6 mg/dL
  DBIL: 0.008 mg/dL
  GLC: 210.6 mg/dL
  K: 5.6 meq/L
  Na: 141.6 meq/L
  PL: 161 mg/dL
  RALB: 4.1 g/dL
  TBIL: 0.5 mg/dL
  TC: 85.6 mg/dL
  TG: 74.4 mg/dL
  TP: 6.2 g/dL
  gamma-GTP: 1.8 IU/L
[7]
  TERMINAL_BW: 217 g
  APTT: 16.2 s
  Bas: 0%
  Eos: 1%
  Fbg: 240.5 mg/dL
  Hb: 14.2 g/dL
  Ht: 43%
  Lym: 80.5%
  MCH: 21.8 pg
  MCHC: 33%
  MCV: 66 fL
  Mono: 6.2%
  Neu: 12%
  PT: 12.2 s
  Plat: 118.3 x10_4/uL
  RBC: 652.2 x10_4/ul
  Ret: 8.2%
  WBC: 104.3 x10_2/uL
  KIDNEY_L: 1 g
  KIDNEY_R: 1 g
  KIDNEY_TOTAL: 2 g
  LIVER: 10 g
  ALP: 725 IU/L
  ALT: 25.8 IU/L
  AST: 67 IU/L
  BUN: 16.5 mg/dL
  CRE: 0.6 mg/dL
  DBIL: 0.0325 mg/dL
  GLC: 214.8 mg/dL
  K: 4.8 meq/L
  Na: 141.8 meq/L
  PL: 147.5 mg/dL
  RALB: 3.8 g/dL
  TBIL: 0.4 mg/dL
  TC: 84.5 mg/dL
  TG: 70.8 mg/dL
  TP: 5.8 g/dL
  gamma-GTP: 1.2 IU/L
[8]
  TERMINAL_BW: 235.1 g
  APTT: 15.6 s
  Bas: 0%
  Eos: 0.8%
  Fbg: 211 mg/dL
  Hb: 13.5 g/dL
  Ht: 40.5%
  Lym: 75%
  MCH: 21.9 pg
  MCHC: 33.4%
  MCV: 65.4 fL
  Mono: 7.6%
  Neu: 16.6%
  PT: 12.2 s
  Plat: 103.7 x10_4/uL
  RBC: 620.4 x10_4/ul
  Ret: 8.3%
  WBC: 133.5 x10_2/uL
  KIDNEY_L: 1.1 g
  KIDNEY_R: 1.1 g
  KIDNEY_TOTAL: 2.2 g
  LIVER: 12 g
  ALP: 1023.4 IU/L
  ALT: 37 IU/L
  AST: 57.4 IU/L
  BUN: 14.4 mg/dL
  CRE: 0.5 mg/dL
  DBIL: 0.006 mg/dL
  GLC: 201.6 mg/dL
  K: 5.1 meq/L
  Na: 140 meq/L
  PL: 167.4 mg/dL
  RALB: 4 g/dL
  TBIL: 0.4 mg/dL
  TC: 91.6 mg/dL
  TG: 105.8 mg/dL
  TP: 5.9 g/dL
  gamma-GTP: 1.4 IU/L
